# Source: US20040171658A1, “Carbohydrate derivatives” (priority 2001, published 2004)
# Where a name gives a salt, the structure may show the parent alone.
# What was measured:
# FXa = FXa (Homo sapiens, UniProt P00742); assay: Factor Xa inhibition (FXa-IC50); format: biochemical
# Source text: The inhibition of factor Xa by the compounds according to the invention and the measurement of the anticoagulant and antithrombotic activity can be determined by conventional in-vitro or in-vivo methods. A suitable method is described, for example, by J. Hauptmann et al. in Thrombosis and Haemostasis 1990, 63, 220-223.
# The inhibition of factor Xa can be measured, for example, by the method of T. Hara et al. in Thromb. Haemostas. 1994, 71, 314-319.
# TF/FVIIa = TF/FVIIa (Homo sapiens, UniProt P08709); assay: TF/factor VIIa inhibition (TF/FVIIa-IC50); format: biochemical
# TF/FVIIa, sequence (P08709 213-466 limits assumed): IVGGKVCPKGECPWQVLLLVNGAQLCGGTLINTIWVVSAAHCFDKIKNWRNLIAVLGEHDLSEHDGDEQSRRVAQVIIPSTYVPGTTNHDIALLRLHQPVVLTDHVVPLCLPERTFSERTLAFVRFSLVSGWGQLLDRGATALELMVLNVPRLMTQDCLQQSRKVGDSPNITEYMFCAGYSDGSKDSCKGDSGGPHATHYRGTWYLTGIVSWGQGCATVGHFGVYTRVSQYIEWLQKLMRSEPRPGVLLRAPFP
# TF/FVIIa, sequence (P08709 61-212 partner limits assumed): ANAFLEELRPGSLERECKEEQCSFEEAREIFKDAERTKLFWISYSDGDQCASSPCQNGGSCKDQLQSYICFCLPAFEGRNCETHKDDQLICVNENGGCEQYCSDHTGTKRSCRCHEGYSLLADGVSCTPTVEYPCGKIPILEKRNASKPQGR
# TF/FVIIa, sequence (P13726 33-295 partner): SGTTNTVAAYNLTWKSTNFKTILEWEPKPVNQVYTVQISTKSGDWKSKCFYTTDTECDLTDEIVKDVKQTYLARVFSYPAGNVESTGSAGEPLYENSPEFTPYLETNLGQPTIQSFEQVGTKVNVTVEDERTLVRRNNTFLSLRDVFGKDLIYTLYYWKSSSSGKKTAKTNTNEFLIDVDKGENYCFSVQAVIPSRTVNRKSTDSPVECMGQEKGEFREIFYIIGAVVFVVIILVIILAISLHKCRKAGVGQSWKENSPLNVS
# Source text: The inhibition of factor VIIa by the compounds according to the invention and the measurement of the anticoagulant and antithrombotic activity can be determined by conventional in-vitro or in-vivo methods. A conventional method for the measurement of the inhibition of factor VIIa is described, for example, by H. F. Ronning et al. in Thrombosis Research 1996, 84, 73-81.
# FXa, sequence (P00742 235-488 limits assumed): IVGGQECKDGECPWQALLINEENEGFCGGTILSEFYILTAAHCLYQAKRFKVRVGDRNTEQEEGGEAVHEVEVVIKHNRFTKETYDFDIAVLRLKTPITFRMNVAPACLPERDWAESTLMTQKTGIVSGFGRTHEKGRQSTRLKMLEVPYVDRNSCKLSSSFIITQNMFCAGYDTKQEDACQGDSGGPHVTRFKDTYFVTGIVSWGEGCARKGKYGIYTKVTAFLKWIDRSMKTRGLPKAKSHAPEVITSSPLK
# FXa, sequence (P00742 41-179 partner limits assumed): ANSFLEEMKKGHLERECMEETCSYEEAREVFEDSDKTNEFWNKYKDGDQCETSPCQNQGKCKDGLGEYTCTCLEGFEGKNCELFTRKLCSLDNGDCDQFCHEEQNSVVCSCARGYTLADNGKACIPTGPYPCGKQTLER
IC50 (FXa),melting point,IC50 (TF/FVIIa),Structure (SMILES)
150 nM,–,0.1 µM,"N=C(N)c1ccc(O[C@@H]2CO[C@H]3[C@@H]2OC[C@@H]3Oc2cccc(C(=N)N)c2)cc1 [Compound B1, 2-O-(3′-Amidinophenyl)-5-O-(4″-amidinophenyl)-1,4:3,6-dianhydro-D-sorbitol]"
–,225 °C (dec.),–,"N=C(N)c1ccc(O[C@@H]2CO[C@H]3[C@@H]2OC[C@@H]3Oc2cccc(C(=N)N)c2)cc1 (as salt: trifluoroacetate) [Compound B1, 2-O-(3′-Amidinophenyl)-5-O-(4″-amidinophenyl)-1,4:3,6-dianhydro-D-sorbitol]"
3000 nM,–,6 µM,"N=C(N)c1cccc(O[C@H]2CO[C@H]3[C@@H]2OC[C@H]3Oc2cccc(C(=N)N)c2)c1 [Compound B2, 2-O-(3′-amidinophenyl)-5-O-(3″-amidinophenyl)-1,4:3,6-dianhydro-D-sorbitol]"

# Continued, molecule first:
Structure (SMILES),IC50 (FXa),melting point,IC50 (TF/FVIIa)
"N=C(N)c1cccc(CO[C@H]2CO[C@H]3[C@@H]2OC[C@H]3Oc2cccc(C(=N)N)c2)c1 [Compound A1, 2-O-(3′-Amidinobenzyl)-5-O-(3″-amidinophenyl)-1,4:3,6-dianhydro-D-sorbitol]",7900 nM,–,–
"N=C(N)c1cccc(CO[C@H]2CO[C@H]3[C@@H]2OC[C@H]3Oc2cccc(C(=N)N)c2)c1 (as salt: trifluoroacetate) [Compound A1, 2-O-(3′-Amidinobenzyl)-5-O-(3″-amidinophenyl)-1,4:3,6-dianhydro-D-sorbitol]",–,155 °C,–
"N=C(N)c1ccc(O[C@@H]2CO[C@H]3[C@@H]2OC[C@@H]3OCc2cccc(C(=N)N)c2)cc1 [Compound A2, 2-O-(3′-amidinobenzyl)-5-O-(4″-amidinophenyl)-1,4:3,6-dianhydro-D-sorbitol]",2100 nM,–,3.9 µM
